The values that follow come from ChEMBL document CHEMBL1129114, “Bioactive hydroxyethylene dipeptide isosteres with hydrophobic (P3-P1)-moieties. A novel strategy towards small non-peptide renin inhibitors” (Bioorg Med Chem Lett, 1996).

In general, IC50 refers to the concentration needed to halve the response being measured. A higher IC50 goes with weaker potency in that assay.

The target of this assay is T1, Renin (Homo sapiens, UniProt P00797).
T1 sequence (P00797 whole entry): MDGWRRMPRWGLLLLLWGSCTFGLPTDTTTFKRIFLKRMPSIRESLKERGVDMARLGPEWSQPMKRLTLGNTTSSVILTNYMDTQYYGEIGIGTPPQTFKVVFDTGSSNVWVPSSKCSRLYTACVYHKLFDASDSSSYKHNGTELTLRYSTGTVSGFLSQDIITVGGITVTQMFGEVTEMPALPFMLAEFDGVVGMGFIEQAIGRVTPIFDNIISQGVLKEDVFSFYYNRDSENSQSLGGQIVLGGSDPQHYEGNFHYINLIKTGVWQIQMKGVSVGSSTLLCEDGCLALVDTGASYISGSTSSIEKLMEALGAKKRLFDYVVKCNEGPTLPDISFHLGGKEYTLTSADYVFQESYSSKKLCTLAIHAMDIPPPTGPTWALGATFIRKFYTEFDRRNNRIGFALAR
The assay can be described thus: In vitro binding affinity was tested against purified human renin at pH 7.2.
In turn, `CCCCNC(=O)[C@H](C)C[C@H](O)[C@@H](N)CC1CCCCC1` displayed an IC50 of 30 µM.

On to `CCCCNC(=O)[C@H](C)C[C@H](O)[C@@H](N)C[C@H]1CC[C@H](CCCC(C)(C)C)CC1`, for which the IC50 is 4.3 µM.

As for `CCCCNC(=O)[C@H](C)C[C@H](O)[C@@H](N)CC(C)(C)CCc1ccc2ccccc2c1`, the IC50 worked out at 3 µM.

`CCCCNC(=O)[C@H](C)C[C@H](O)[C@@H](N)CC(CC)(CC)CCc1cccc2ccccc12` yielded an IC50 of 2.7 µM.

`CCCCNC(=O)[C@H](C)C[C@H](O)[C@@H](N)C[C@@H]1CCC[C@@H](CCCC(C)(C)C)C1` came in with a half-inhibitory concentration (IC50) of 0.3 µM.

With `CCCCNC(=O)[C@H](C)C[C@H](O)[C@@H](N)CC(C)(C)CCc1ccc(CO)cc1`, the 50% inhibitory concentration (IC50) is 79 µM.

Compound `CCCCNC(=O)[C@H](C)C[C@H](O)[C@@H](N)CC(C)(C)CCc1ccc(CO)c2ccccc12` gave an IC50 of 10 µM.

Take `CCCCNC(=O)[C@H](C)C[C@H](O)[C@@H](N)Cc1ccc(OCc2ccccc2)cc1`: the IC50 came out at 32 µM.

As for `CCCCNC(=O)[C@H](C)C[C@H](O)[C@@H](N)Cc1cccc(CCCC(C)(C)C)c1`, the IC50 is 13 µM.

Turning to `CCCCNC(=O)[C@H](C)C[C@H](O)[C@@H](N)CC(C)(C)CCCc1ccc2ccccc2c1`, the IC50 stood at 3.7 µM.

Regarding `CCCCNC(=O)[C@H](C)C[C@H](O)[C@@H](N)C[C@@H]1CCC[C@H](CCCC(C)(C)C)C1`, the half-inhibitory concentration (IC50) worked out at 2.9 µM.

The compound `CCCCNC(=O)[C@H](C)C[C@H](O)[C@@H](N)CC(C)C` returned an IC50 of more than 100 µM.

The compound `CCCCNC(=O)[C@H](C)C[C@H](O)[C@@H](N)CC1CCCC(CCCC(C)(C)C)C1` (stereo partly specified) yielded an IC50 of 0.8 µM.

The compound `CCCCNC(=O)[C@H](C)C[C@H](O)[C@@H](N)CC(C)(C)CCc1cccc2ccccc12` yielded an IC50 of 0.7 µM.

In the case of `CCCCNC(=O)[C@H](C)C[C@H](O)[C@@H](N)CC(C)(C)CCCc1cccc2ccccc12`, the IC50 amounted to 2.1 µM.

For the compound `CCCCNC(=O)[C@H](C)C[C@H](O)[C@@H](N)CC(C)(C)CCc1cccc(CO)c1`, the IC50 worked out at 58 µM.
